Test results published in publication PMC5149398 (Journal of medicinal chemistry, 2016).

Assays:
AKR1C3 [1] = target: T1, AKR1C3 (Homo sapiens, UniProt P42330); test: S-tetralol oxidation assay, AKR1C3; format: biochemical
T1 sequence (P42330 1-323): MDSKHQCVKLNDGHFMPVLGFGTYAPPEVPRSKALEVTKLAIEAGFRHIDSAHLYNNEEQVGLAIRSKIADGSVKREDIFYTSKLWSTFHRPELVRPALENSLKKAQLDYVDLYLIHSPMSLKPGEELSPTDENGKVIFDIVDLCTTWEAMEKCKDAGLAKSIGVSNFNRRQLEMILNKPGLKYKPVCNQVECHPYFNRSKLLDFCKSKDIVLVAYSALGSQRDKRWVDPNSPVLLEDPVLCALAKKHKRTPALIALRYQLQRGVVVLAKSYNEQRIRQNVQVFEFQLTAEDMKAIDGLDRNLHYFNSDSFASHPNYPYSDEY

[2] = tested on: PSA expression in LNCaP-AKR1C3 cells; test: Δ4-AD induced PSA expression in LNCaP-AKR1C3 cells; format: cell-based; settings: 100 nM Δ4-AD, 30 µM compound, 24 h
AKR1C3 [3] = target: T1, AKR1C3; test: AKR1C3 catalyzed NADPH dependent reduction of [3H]-Δ4-AD; format: biochemical
AKR1C3 [4] = target: T1, AKR1C3; test: Radiometric assay of androgen metabolism; format: cell-based; settings: LNCaP-AKR1C3 cells, 100 nM Δ4-AD, 30 µM compound, 48 h
COX-2 = settings: no COX-2 method in this paper, ref Duggan et al.[42], cited from earlier work
AKR1C2 = target: T2, AKR1C2 (Homo sapiens, UniProt P52895); settings: 5α-DHT reduction, <100 µM concentrations
T2 sequence (P52895 1-323): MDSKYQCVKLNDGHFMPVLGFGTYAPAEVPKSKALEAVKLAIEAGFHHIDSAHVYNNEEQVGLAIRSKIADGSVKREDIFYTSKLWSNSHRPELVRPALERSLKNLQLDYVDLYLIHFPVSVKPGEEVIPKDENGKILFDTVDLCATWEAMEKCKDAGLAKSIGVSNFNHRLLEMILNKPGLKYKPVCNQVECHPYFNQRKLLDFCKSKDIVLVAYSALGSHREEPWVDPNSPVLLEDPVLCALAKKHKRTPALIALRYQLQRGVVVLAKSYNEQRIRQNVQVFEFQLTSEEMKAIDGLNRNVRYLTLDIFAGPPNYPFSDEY

SMILES: CSc1ccc2cc(C(C)C(=O)O)ccc2c1 (racemic) [(±)-9, 2-(6-(Methylthio)naphthalen-2-yl)propanoic Acid]
- increase in the inhibitory potency for AKR1C3 over that seen with naproxen (AKR1C3 [1]; S-tetralol oxidation): 3 fold

SMILES: CC(C(=O)O)c1ccc2cc([S+](C)[O-])ccc2c1 (racemic) [(±)-10, 2-(6-(Methylsulfinyl)naphthalen-2-yl)propanoic Acid]
- loss of inhibitory potency on AKR1C3 compared to 9 (AKR1C3 [1]; S-tetralol oxidation): greater than 15 fold

SMILES: CC(C(=O)O)c1ccc2cc(S(C)(=O)=O)ccc2c1 (racemic) [(±)-11, 2-(6-(Methylsulfonyl)naphthalen-2-yl)propanoic Acid]
- loss of inhibitory potency on AKR1C3 compared to 9 (AKR1C3 [1]; S-tetralol oxidation): greater than 15 fold

SMILES: CC[C@@H](C(=O)O)c1ccc2cc(OC)ccc2c1 [(R)-14a, (R)-2-(6-methoxynaphthalen-2-yl)butanoic acid]
- Δ4-AD induced increase in PSA expression [2]: reduced
- mode of AKR1C3 inhibition (AKR1C3 [3]): same mode of inhibition
- production of [3H]-testosterone glucuronide (AKR1C3 [4]): significantly inhibited
- mode of AKR1C3 inhibition (AKR1C3 [1]; oxidation of S-tetralol): competitively inhibited
- COX-2 IC50 (µM) (COX-2): no inhibition ^a
- inhibition of AKR1C2 (AKR1C2): did not display any significant inhibition

SMILES: CC[C@H](C(=O)O)c1ccc2cc(OC)ccc2c1 [(S)-14b]
- COX-2 IC50 (µM) (COX-2): no inhibition ^a

SMILES: COc1ccc2cc([C@@H](C)C(=O)O)ccc2c1 [R-naproxen (1a), reference compound]
- IC50 (COX-2; read-out: COX-2 IC50): > 25 µM
